Some test systems named below: 786-0; EKVX; HCT-15; HOP-62; LOX IMVI; NCI-H23; NCI-H522; OVCAR-3; OVCAR-4; SF-268; SF-295; SK-MEL-5; TK-10; UO-31; A498; CAKI-1; UACC-257.
Assay in all cases: inhibition of tumour cell growth, NCI panel, 48 h

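Cells were grown in 96-well plates and exposed to each compound for 48 hours at five concentrations; endpoints were interpolated linearly between bracketing concentrations, or set to the highest concentration if not reached. GI50 = concentration required for 50% inhibition of growth.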 Activity calls are given as the source filed them. Cut-off read from the data, not from the text of the source: active = GI50 up to about 1.1 µM and inactive = higher.

In the case of `O=C1NC2(C=Cc3c(ccc4ccccc34)O2)Oc2ccccc21` (centres undefined), the GI50 in the assay on 786-0 was 19 µM (inactive); with EKVX it was 21.1 µM (inactive); with HCT-15 it was 7.46 µM; in the assay on HOP-62 it was 31.7 µM (inactive); in the assay on LOX IMVI it was 12.9 µM (inactive); in the assay with NCI-H23, 26.7 µM (inactive). The GI50 in the assay with NCI-H522 is 11.4 µM (inactive); in the assay with OVCAR-3 it was 13.4 µM (inactive); with OVCAR-4, 19.1 µM (inactive); in the assay on SF-268, 17.2 µM (inactive); in the assay on SF-295, 13 µM (inactive); in the assay with SK-MEL-5, 13.1 µM (inactive). Moreover, the results for the GI50 in the assay on TK-10 and in the assay on UO-31 were 21.5 µM (inactive) and 1.76 µM (inactive), respectively.

Regarding `CC1CC2C(=O)N(c3ccccc3)C(=O)C2c2[nH]c3ccccc3c21` (centres undefined), the GI50 is 50.2 µM (inactive) in the assay on 786-0; > 100 µM (inactive) in the assay on A498; > 100 µM (inactive) with EKVX; over 100 µM with HCT-15; 45.5 µM (inactive) in the assay on LOX IMVI; 58.9 µM (inactive) with NCI-H23. In addition, the GI50 was 48.2 µM (inactive) in the assay with OVCAR-3; 41.8 µM (inactive) in the assay with OVCAR-4; > 100 µM (inactive) in the assay with SF-268; 44.8 µM (inactive) in the assay on SF-295; > 100 µM (inactive) with SK-MEL-5; 85.7 µM (inactive) in the assay on TK-10.

As to `O=C(NCCCCCCCCNC(=O)c1cnc2ccccc2n1)c1cnc2ccccc2n1`, the GI50 in the assay with 786-0 is > 100 µM (inactive); in the assay on A498, > 100 µM (inactive); with CAKI-1, > 100 µM (inactive); in the assay with EKVX, > 100 µM (inactive); in the assay with HCT-15 it was over 100 µM; with HOP-62, > 100 µM (inactive). Besides, the GI50 in the assay on LOX IMVI, with NCI-H23, with OVCAR-3, in the assay with OVCAR-4, in the assay on SF-268 and with SF-295 was > 100 µM (inactive) in each case. The GI50 in the assay on SK-MEL-5, with TK-10, in the assay on UACC-257 and in the assay on UO-31 was > 100 µM (inactive) in each case.

With `COC(=O)c1c(CC#N)cccc1CC#N`, the GI50 with 786-0 is > 100 µM (inactive); with CAKI-1, > 100 µM (inactive); in the assay on EKVX it was > 100 µM (inactive); in the assay with HCT-15, over 100 µM; in the assay on HOP-62 it was > 100 µM (inactive); in the assay with LOX IMVI it was > 100 µM (inactive). For the same molecule, the GI50 with NCI-H23, in the assay with NCI-H522, in the assay on OVCAR-3, in the assay with OVCAR-4, in the assay on SF-268 and in the assay on SF-295 was > 100 µM (inactive) each time. Also, the GI50 in the assay with UACC-257 and with UO-31 was > 100 µM (inactive) throughout.

For the molecule `C=C(CO)CC(O)c1cc(OC)ccc1OC` (centres undefined), the GI50 is > 100 µM (inactive) in the assay with 786-0; > 100 µM (inactive) in the assay with CAKI-1; > 100 µM (inactive) in the assay on EKVX; over 100 µM in the assay with HCT-15; > 100 µM (inactive) in the assay on HOP-62; > 100 µM (inactive) in the assay on LOX IMVI. The GI50 in the assay on NCI-H522, in the assay on OVCAR-3, in the assay with OVCAR-4, with SF-268, with SF-295 and in the assay with SK-MEL-5 was > 100 µM (inactive) throughout. Besides, the GI50 in the assay on TK-10, in the assay on UACC-257 and in the assay on UO-31 was > 100 µM (inactive) each time.

For `CC(=O)Nc1ccc(S(=O)(=O)NN(C)S(=O)(=O)c2ccc(C)cc2)cc1`, the GI50 with 786-0, in the assay with A498, in the assay with CAKI-1, with EKVX, in the assay on HOP-62 and with NCI-H23 was > 100 µM (inactive) throughout. Also, the GI50 in the assay on NCI-H522, in the assay with OVCAR-3, with OVCAR-4, with SF-268, in the assay on SF-295 and with SK-MEL-5 was > 100 µM (inactive) throughout. In addition, the GI50 in the assay with TK-10, with UACC-257 and in the assay on UO-31 was > 100 µM (inactive) each time.

Take `Cc1ccc(C)c(NC(=O)CC/C(=N\NC(=O)C(N)=O)C(C)C(=O)c2ccc(O)cc2)c1` (centres undefined): the GI50 in the assay with 786-0 was > 100 µM (inactive); in the assay with CAKI-1, > 100 µM (inactive); with EKVX it was > 100 µM (inactive); in the assay with HCT-15, over 100 µM; in the assay on HOP-62, > 100 µM (inactive); with LOX IMVI it was > 100 µM (inactive). Also, the GI50 in the assay with NCI-H23, in the assay with OVCAR-3, in the assay on OVCAR-4, in the assay with SF-268, with SF-295 and in the assay with SK-MEL-5 was > 100 µM (inactive) throughout. The GI50 in the assay with UACC-257 and in the assay with UO-31 was > 100 µM (inactive) throughout.

As to `C=C(C)CCOC(c1ccccc1)(c1ccccc1)c1ccccc1`, the GI50 in the assay with 786-0 is > 100 µM (inactive); with CAKI-1, 70.6 µM (inactive); in the assay with HCT-15, 47.3 µM; in the assay on HOP-62, 70.5 µM (inactive); in the assay with LOX IMVI it was 25.2 µM (inactive); in the assay on NCI-H23 it was 27.8 µM (inactive). Moreover, the GI50 was 18.9 µM (inactive) in the assay with NCI-H522; 64.4 µM (inactive) in the assay with OVCAR-3; 34.7 µM (inactive) with OVCAR-4; 47 µM (inactive) in the assay on SF-268; 37.4 µM (inactive) in the assay on SF-295; 27.4 µM (inactive) in the assay on SK-MEL-5. The GI50 is 83.4 µM (inactive) in the assay with TK-10, 25.4 µM (inactive) with UACC-257 and 27.7 µM (inactive) with UO-31.

For the molecule `COC(=O)OCC1OC(N2C(=O)NC(=O)C(Br)C2N=[N+]=[N-])CC1OC(=O)OC` (centres undefined), the GI50 in the assay with 786-0 is > 100 µM (inactive); in the assay on CAKI-1 it was > 100 µM (inactive); in the assay on HCT-15, over 100 µM; in the assay on HOP-62 it was > 100 µM (inactive); in the assay on LOX IMVI it was > 100 µM (inactive); in the assay with NCI-H23, > 100 µM (inactive). The GI50 with NCI-H522 is 66.4 µM (inactive); in the assay with OVCAR-3, > 100 µM (inactive); with OVCAR-4 it was > 100 µM (inactive); in the assay on SF-268, > 100 µM (inactive); in the assay with SF-295, > 100 µM (inactive); in the assay on SK-MEL-5 it was > 100 µM (inactive). Moreover, the GI50 with TK-10, in the assay with UACC-257 and with UO-31 was > 100 µM (inactive) each time.

For `COc1ccc2c(c1)[n+]([O-])c(C(=O)C/C(=N/NC(=O)C[N+](C)(C)C)C(=O)Nc1cccc(C)c1C)c(C)[n+]2[O-]`, the GI50 with 786-0 is > 100 µM (inactive); with A498, > 100 µM (inactive); with CAKI-1 it was > 100 µM (inactive); with EKVX it was > 100 µM (inactive); with HCT-15, over 100 µM; with HOP-62, > 100 µM (inactive). Further, the GI50 in the assay on NCI-H23, in the assay with NCI-H522, with OVCAR-3, with OVCAR-4, in the assay with SF-268 and in the assay with SF-295 was > 100 µM (inactive) each time. Also, the GI50 was 28.6 µM (inactive) in the assay on UACC-257 and > 100 µM (inactive) with UO-31.

Turning to `Cn1c(=O)c2c(ncn2CCCCn2ccnc2[N+](=O)[O-])n(C)c1=O`, the GI50 in the assay with 786-0 is > 100 µM (inactive); with EKVX it was > 100 µM (inactive); in the assay with HCT-15, over 100 µM; in the assay on HOP-62, > 100 µM (inactive); in the assay on LOX IMVI it was > 100 µM (inactive); with NCI-H23, > 100 µM (inactive). In addition, the GI50 with NCI-H522, with OVCAR-3, in the assay on OVCAR-4, in the assay with SF-268, with SF-295 and in the assay with SK-MEL-5 was > 100 µM (inactive) in each case. Besides, the GI50 in the assay with TK-10 and in the assay with UO-31 was > 100 µM (inactive) in each case.

As to `C=CC(=O)NCCSCCCOC1(C(=O)O)CC(O)C(NC(C)=O)C(C(O)C(O)CO)O1` (centres undefined), the GI50 with 786-0 was > 100 µM (inactive); in the assay with HCT-15, over 100 µM; in the assay on LOX IMVI it was > 100 µM (inactive); in the assay on NCI-H23 it was > 100 µM (inactive); with NCI-H522, > 100 µM (inactive); in the assay on OVCAR-3, > 100 µM (inactive). In addition, the GI50 with OVCAR-4, in the assay with SF-295, with TK-10, with UACC-257 and in the assay with UO-31 was > 100 µM (inactive) each time.

Take `CC(=O)OC[C@]1(O)CC[C@@]23CC1C[C@@H]2CCC1C(C)(C)CCC[C@@]13C` (some centres undefined): the GI50 was 17.3 µM (inactive) in the assay with 786-0; 18.2 µM (inactive) in the assay on CAKI-1; 15.8 µM in the assay with HCT-15; 17.4 µM (inactive) with HOP-62; 11.1 µM (inactive) in the assay on LOX IMVI; 12.8 µM (inactive) with NCI-H23. In addition, the GI50 in the assay on NCI-H522 is 2.64 µM (inactive); in the assay with OVCAR-3 it was 17.1 µM (inactive); in the assay with OVCAR-4 it was 15.9 µM (inactive); in the assay with SF-268, 14.9 µM (inactive); in the assay on SF-295, 17.6 µM (inactive); with SK-MEL-5, 15 µM (inactive). Also, the figures for the GI50 with TK-10, in the assay with UACC-257 and with UO-31 were 13.4 µM (inactive), 15.8 µM (inactive) and 16.1 µM (inactive), respectively.

With `COC(=O)C1[C@@H](C(=O)OC)C(=O)O[C@H]1c1cc(OC)c(OC)c(OC)c1` (some centres undefined), the GI50 with 786-0 was > 100 µM (inactive); in the assay on A498, 48.5 µM (inactive); with CAKI-1 it was > 100 µM (inactive); in the assay on HCT-15 it was over 100 µM; with HOP-62, > 100 µM (inactive); with LOX IMVI, > 100 µM (inactive). In addition, the GI50 in the assay with NCI-H23, in the assay on OVCAR-3, with OVCAR-4, with SF-268, in the assay with SF-295 and in the assay on SK-MEL-5 was > 100 µM (inactive) in each case. The GI50 in the assay on TK-10, in the assay with UACC-257 and with UO-31 was > 100 µM (inactive) in each case.

The values are drawn from ChEMBL document CHEMBL1201862, “PubChem BioAssay data set” (2004).
